Molecules are shown by their SMILES. Where two headings read alike, the source gives them in different places.

Assay [1] deals with T1, baculovirus-expressed ALK (Homo sapiens, UniProt Q9UM73).
T1 construct: host or cells: baculovirus expression system
Kind of assay: ALK Kinase Assay (ELISA-type, time-resolved fluorescence). The format is biochemical. In a few lines: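 Plates coated with phospholipase C-γ substrate (10 μg/mL in TBS); reaction started with 30 ng/ml ALK and run 15 min at 37° C. Phosphorylated substrate detected with Eu-N1-labeled PT66 antibody. IC50 from sigmoidal variable-slope fit of percent inhibition vs log concentration.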

Assay [2] deals with T2, c-Met (cytoplasmic domain) (Homo sapiens, UniProt P08581).
T2 construct: 10 ng/mL c-Met (cytoplasmic domain, Invitrogen Corporation #PV3143); purchased Invitrogen Corporation PV3143
T2 sequence (P08581 956-1390 limits assumed): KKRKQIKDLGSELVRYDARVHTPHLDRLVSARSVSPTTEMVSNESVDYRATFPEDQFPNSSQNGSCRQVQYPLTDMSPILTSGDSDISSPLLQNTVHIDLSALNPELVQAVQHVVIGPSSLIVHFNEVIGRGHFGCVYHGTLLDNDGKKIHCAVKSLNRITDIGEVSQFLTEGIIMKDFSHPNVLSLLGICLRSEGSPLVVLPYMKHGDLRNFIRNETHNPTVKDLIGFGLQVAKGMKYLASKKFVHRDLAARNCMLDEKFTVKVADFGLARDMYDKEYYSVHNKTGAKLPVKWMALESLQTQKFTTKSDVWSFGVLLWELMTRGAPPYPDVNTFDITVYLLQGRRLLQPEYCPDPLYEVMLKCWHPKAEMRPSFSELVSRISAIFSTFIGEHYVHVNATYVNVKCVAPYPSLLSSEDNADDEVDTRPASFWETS
The experiment in a line: c-Met Kinase Assay (same methods as for ALK, with modifications). It is filed as biochemical. In a few lines:
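Europium-labeled PT66 antibody (Eu-N1) detects substrate phosphorylation on wells coated with phospholipase C-γ at 10 μg/mL. The kinase, the cytoplasmic domain of c-Met at 10 ng/mL, starts the reaction, which proceeds 15 minutes at 37° C.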

[3] abbreviates: ALK kinase inhibition, 1 μM ATP (Km level), read-out: ALK Activity.
Setting [4] is: c-Met kinase inhibition, 1 μM ATP (Km level), read-out: cMet Activity.
Setting [5] is: 1 μM ATP (Km level), read-out: ALK Activity (ALK Kinase Inhibition, IC50).
The mark [6] stands for this setting: 1 μM ATP (Km level), read-out: cMet Activity (c-Met Kinase Inhibition, IC50).
The mark [7] stands for this setting: ALK kinase inhibition, 1 μM ATP, read-out: ALK Activity.
Where [8] appears, read: c-Met kinase inhibition, 1 μM ATP, read-out: cMet Activity.
Setting [9] is: 1 μM ATP (Km level), 30 ng/ml ALK, 37° C., 15 minutes, read-out: ALK Activity (ALK kinase inhibition, IC50 class).
The mark [10] stands for this setting: 1 μM ATP (Km level), 10 ng/mL c-Met, read-out: cMet Activity (c-Met kinase inhibition, IC50 class).

T1 sequence (Q9UM73 19-1620): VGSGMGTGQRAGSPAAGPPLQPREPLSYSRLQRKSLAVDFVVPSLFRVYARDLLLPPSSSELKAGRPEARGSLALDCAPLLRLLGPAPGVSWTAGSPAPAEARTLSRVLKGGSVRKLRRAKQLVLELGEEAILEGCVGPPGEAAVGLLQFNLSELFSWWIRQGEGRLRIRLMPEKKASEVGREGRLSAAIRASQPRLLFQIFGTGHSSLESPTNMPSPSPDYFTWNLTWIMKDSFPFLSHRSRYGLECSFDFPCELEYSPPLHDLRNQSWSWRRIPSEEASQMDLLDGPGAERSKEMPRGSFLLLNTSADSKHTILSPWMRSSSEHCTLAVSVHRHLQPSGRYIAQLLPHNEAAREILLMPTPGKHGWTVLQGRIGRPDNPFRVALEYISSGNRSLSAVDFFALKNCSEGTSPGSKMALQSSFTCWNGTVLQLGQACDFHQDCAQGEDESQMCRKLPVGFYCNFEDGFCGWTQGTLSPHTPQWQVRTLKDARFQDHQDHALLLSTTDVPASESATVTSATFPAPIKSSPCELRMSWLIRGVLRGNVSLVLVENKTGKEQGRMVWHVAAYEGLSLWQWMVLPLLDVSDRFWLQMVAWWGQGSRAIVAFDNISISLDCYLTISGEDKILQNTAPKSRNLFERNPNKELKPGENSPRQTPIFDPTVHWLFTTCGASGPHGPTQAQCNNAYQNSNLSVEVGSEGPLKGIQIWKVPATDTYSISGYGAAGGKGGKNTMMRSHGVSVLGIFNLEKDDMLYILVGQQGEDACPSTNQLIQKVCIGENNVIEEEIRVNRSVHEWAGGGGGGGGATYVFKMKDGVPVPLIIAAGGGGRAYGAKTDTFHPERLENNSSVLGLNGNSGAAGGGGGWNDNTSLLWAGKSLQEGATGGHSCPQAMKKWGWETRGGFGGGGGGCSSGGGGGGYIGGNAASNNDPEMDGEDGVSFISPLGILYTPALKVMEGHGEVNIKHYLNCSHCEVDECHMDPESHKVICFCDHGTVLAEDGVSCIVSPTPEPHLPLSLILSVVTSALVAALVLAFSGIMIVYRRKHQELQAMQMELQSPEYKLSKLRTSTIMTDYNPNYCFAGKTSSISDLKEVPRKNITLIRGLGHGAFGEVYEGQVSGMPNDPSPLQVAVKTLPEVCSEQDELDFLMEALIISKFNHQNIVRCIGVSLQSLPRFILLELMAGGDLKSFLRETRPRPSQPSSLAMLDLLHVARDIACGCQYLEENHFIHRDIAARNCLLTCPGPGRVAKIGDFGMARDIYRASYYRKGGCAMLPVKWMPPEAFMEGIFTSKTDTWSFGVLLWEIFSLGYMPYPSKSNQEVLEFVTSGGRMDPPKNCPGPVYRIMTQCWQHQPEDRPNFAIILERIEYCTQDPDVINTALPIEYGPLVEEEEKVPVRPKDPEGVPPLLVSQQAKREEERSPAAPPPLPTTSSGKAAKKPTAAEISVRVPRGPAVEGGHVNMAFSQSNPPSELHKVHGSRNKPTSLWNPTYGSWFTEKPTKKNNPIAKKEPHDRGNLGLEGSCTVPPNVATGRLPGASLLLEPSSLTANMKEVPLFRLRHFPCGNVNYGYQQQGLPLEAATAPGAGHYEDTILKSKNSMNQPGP

Regarding `C#CCN1CC2CCC(C1)c1cc(Nc3ncc(Cl)c(Nc4ccccc4S(=O)(=O)N(C)CC#C)n3)ccc12` (stereo not drawn) [Example 288, 2-[5-Chloro-2-(10-prop-2-ynyl-10-aza-tricyclo[6.3.2.0*2,7*]trideca-2,4,6-trien-4-ylamino)-pyrimidin-4-ylamino]-N-methyl-N-prop-2-ynyl-benzenesulfonamide], the figures for the IC50 in assay [1] (setting [3]) and in assay [2] (setting [4]) were below 100 nM and 100 to 1000 nM, respectively.
`CCN1CCc2cc(Nc3ncc(Cl)c(Nc4ccc(N5CCOCC5)cc4OC)n3)c(OC)cc2CC1=O` [Example 254, 7-[5-Chloro-4-(2-methoxy-4-morpholin-4-yl-phenylamino)-pyrimidin-2-ylamino]-3-ethyl-8-methoxy-1,3,4,5-tetrahydro-benzo[d]azepin-2-one]: the figures for the IC50 in assay [1] (setting [3]) and in assay [2] (setting [4]) were below 100 nM and above 10000 nM, respectively.
For `COCCNC1CCc2ccc(Nc3ncc(Cl)c(N[C@@H]4CCCC[C@H]4NS(C)(=O)=O)n3)c(OC)c2CC1` (single isomer, unassigned) [Example 693], the figures for the IC50 in assay [1] (setting [5]) and in assay [2] (setting [6]) were below 100 nM and above 10000 nM, respectively.
Regarding `COc1cc(N2CCOCC2)ccc1Nc1nc(Nc2ccc3c(c2)N(CCN2CCCC2)CCCC3(C)C)ncc1Cl` [Example 1610, 5-Chloro-N*2*-[5,5-dimethyl-1-(2-pyrrolidin-1-yl-ethyl)-2,3,4,5-tetrahydro-1H-benzo[b]azepin-8-yl]-N*4*-(2-methoxy-4-morpholin-4-yl-phenyl)-pyrimidine-2,4-diamine], the IC50 is below 100 nM in assay [1] (setting [7]) and 1000 to 10000 nM in assay [2] (setting [8]).
As to `CCN1CCc2cc(Nc3ncc(Cl)c(N[C@@H]4CCCC[C@H]4NS(C)(=O)=O)n3)c(OC)cc2CC1=O` [Example 251, N-{(1R,2R)-2-[5-Chloro-2-(3-ethyl-8-methoxy-2-oxo-2,3,4,5-tetrahydro-1H-benzo[d]azepin-7-ylamino)-pyrimidin-4-ylamino]-cyclohexyl}-methanesulfonamide], the IC50 in assay [1] (setting [3]) is below 100 nM; in assay [2] (setting [4]), above 10000 nM.
As for `COCCN1CCc2ccc(Nc3ncc(Cl)c(Nc4c(F)cccc4C(=O)NCC4CC4)n3)cc2CC1` [Example 1711, 2-{5-Chloro-2-[3-(2-methoxy-ethyl)-2,3,4,5-tetrahydro-1H-benzo[d]azepin-7-ylamino]-pyrimidin-4-ylamino}-N-cyclopropylmethyl-3-fluoro-benzamide], the IC50 is 100 to 1000 nM in assay [1] (setting [7]) and 1000 to 10000 nM in assay [2] (setting [8]).
`COc1c(Nc2ncc(Cl)c(Nc3ccccc3-n3cccn3)n2)ccc2c1CCC(NCC(F)F)CC2` (stereo not drawn) [Example 689, 5-Chloro-N*2*-[7-(2,2-difluoro-ethylamino)-1-methoxy-6,7,8,9-tetrahydro-5H-benzocyclohepten-2-yl]-N*4*-(2-pyrazol-1-yl-phenyl)-pyrimidine-2,4-diamine]: the IC50 in assay [1] (setting [5]) was below 100 nM; in assay [2] (setting [6]) it was above 10000 nM.
For `COc1cc(N2CCN(C)CC2)ccc1Nc1nc(Nc2ccc3c(c2)CCCC(=O)N3C(C)C)ncc1Cl` [Example 674, 7-{5-Chloro-4-[2-methoxy-4-(4-methyl-piperazin-1-yl)-phenylamino]-pyrimidin-2-ylamino}-1-isopropyl-1,3,4,5-tetrahydro-benzo[b]azepin-2-one], the values for the IC50 in assay [1] (setting [5]) and in assay [2] (setting [6]) were below 100 nM and 1000 to 10000 nM, respectively.
With `COCCN1CCc2cc(Nc3ncc(Cl)c(Nc4ccccc4-c4nccn4C)n3)c(OC)cc2CC1` [Example 986, 5-Chloro-N*2*-[8-methoxy-3-(2-methoxy-ethyl)-2,3,4,5-tetrahydro-1H-benzo[d]azepin-7-yl]-N*4*-[2-(1-methyl-1H-imidazol-2-yl)-phenyl]-pyrimidine-2,4-diamine], the IC50 in assay [1] (setting [5]) was below 100 nM; in assay [2] (setting [6]), above 10000 nM.
Consider `CNC(=O)CN1CCc2cc(Nc3ncc(Cl)c(N[C@@H]4CCCC[C@H]4NS(C)(=O)=O)n3)c(OC)cc2CC1` [Example 1112, 2-{7-[5-Chloro-4-((1R,2R)-2-methanesulfonylamino-cyclohexylamino)-pyrimidin-2-ylamino]-8-methoxy-1,2,4,5-tetrahydro-benzo[d]azepin-3-yl}-N-methyl-acetamide], for which the IC50 in assay [1] (setting [9]) was below 100 nM; in assay [2] (setting [10]), above 10000 nM.
Turning to `COc1cc2c(cc1Nc1ncc(Cl)c(Nc3cc(Cl)ccc3OC)n1)CCN(CC(C)(F)F)CC2` [Example 785, 5-Chloro-N*4*-(5-chloro-2-methoxy-phenyl)-N*2*-[3-(2,2-difluoro-propyl)-8-methoxy-2,3,4,5-tetrahydro-1H-benzo[d]azepin-7-yl]-pyrimidine-2,4-diamine], the IC50 in assay [1] (setting [5]) is 100 to 1000 nM; in assay [2] (setting [6]), above 10000 nM.
As to `CC(=O)N1CCC(=O)NCc2cc(Nc3ncc(Cl)c(Nc4ccccc4OCC#N)n3)ccc21` [Example 1231, {2-[2-(1-Acetyl-4-oxo-1,2,3,4,5,6-hexahydro-benzo[b][1,5]diazocin-8-ylamino)-5-chloro-pyrimidin-4-ylamino]-phenoxy}-acetonitrile], the IC50 in assay [1] (setting [9]) and in assay [2] (setting [10]) was below 100 nM each time.
As for `CNc1nc(OC)ccc1Nc1nc(Nc2cc3c(cc2OC)CCN(CC(=O)N(C)C)CC3)ncc1Cl` [Example 1208, 2-{7-[5-Chloro-4-(6-methoxy-2-methylamino-pyridin-3-ylamino)-pyrimidin-2-ylamino]-8-methoxy-1,2,4,5-tetrahydro-benzo[d]azepin-3-yl}-N,N-dimethyl-acetamide], the IC50 in assay [1] (setting [9]) was below 100 nM; in assay [2] (setting [10]), above 10000 nM.
Take `CN1CCCCc2cc(Nc3ncc(Cl)c(Nc4ccccc4NS(C)(=O)=O)n3)ccc21` [Example 106, N-{2-[5-Chloro-2-(1-methyl-2,3,4,5-tetrahydro-1H-benzo[b]azepin-7-ylamino)-pyrimidin-4-ylamino]-phenyl}-methanesulfonamide]: the IC50 in assay [1] (setting [3]) is below 100 nM; in assay [2] (setting [4]), 100 to 1000 nM.
In the case of `CNC(=O)c1ccccc1Nc1nc(Nc2ccc3c(c2)CN(CCOC)CCN3C)ncc1Cl` [Example 432, 2-{5-Chloro-2-[4-(2-methoxy-ethyl)-1-methyl-2,3,4,5-tetrahydro-1H-benzo[e][1,4]diazepin-7-ylamino]-pyrimidin-4-ylamino}-N-methyl-benzamide], the IC50 in assay [1] (setting [3]) and in assay [2] (setting [4]) was below 100 nM throughout.
Turning to `CCN1C(=O)CCCc2c1ccc(Nc1ncc(Cl)c(Nc3ccccc3-c3nccn3C)n1)c2OC` [Example 983, 7-{5-Chloro-4-[2-(1-methyl-1H-imidazol-2-yl)-phenylamino]-pyrimidin-2-ylamino}-1-ethyl-6-methoxy-1,3,4,5-tetrahydro-benzo[b]azepin-2-one], the IC50 in assay [1] (setting [5]) is below 100 nM; in assay [2] (setting [6]), above 10000 nM.
With `CN1CCN(C)c2cccc(Nc3ncc(Cl)c(N[C@@H]4CCCC[C@H]4NS(C)(=O)=O)n3)c2C1=O` [Example 214, N-{(1R,2R)-2-[5-Chloro-2-(1,4-dimethyl-5-oxo-2,3,4,5-tetrahydro-1H-benzo[e][1,4]diazepin-6-ylamino)-pyrimidin-4-ylamino]-cyclohexyl}-methanesulfonamide], the IC50 in assay [1] (setting [3]) was in the range of 100 to 1000 nM; in assay [2] (setting [4]), 1000 to 10000 nM.
For `COc1cc2c(cc1Nc1ncc(Cl)c(N[C@@H]3CCCC[C@H]3NS(C)(=O)=O)n1)CCNC(=O)C2` [Example 263, N-{(1R,2R)-2-[5-Chloro-2-(8-methoxy-2-oxo-2,3,4,5-tetrahydro-1H-benzo[d]azepin-7-ylamino)-pyrimidin-4-ylamino]-cyclohexyl}-methanesulfonamide], the IC50 is below 100 nM in assay [1] (setting [3]) and above 10000 nM in assay [2] (setting [4]).

These data come from US8148391B2 (Cephalon, Inc., priority 2006, dated 2012).
